Active and inactive are the calls of the source. How the calls were made is not given here.
Tested on: CCRIS mutagenicity, Ames/micronucleus/aberration tests
Experiment: CCRIS mutagenicity studies
[1] = Test System: AMES SALMONELLA TYPHIMURIUM, Strain/Indicator: TA98, Metabolic Activation: NONE, Method: PREINCUBATION
[2] = Test System: AMES SALMONELLA TYPHIMURIUM, Strain/Indicator: TA100, Metabolic Activation: NONE, Method: PREINCUBATION
[3] = Test System: AMES SALMONELLA TYPHIMURIUM, Strain/Indicator: TA98, Metabolic Activation: NONE, Method: STANDARD PLATE
[4] = Test System: AMES SALMONELLA TYPHIMURIUM, Strain/Indicator: TA100, Metabolic Activation: NONE, Method: STANDARD PLATE
[5] = Test System: AMES SALMONELLA TYPHIMURIUM, Strain/Indicator: TA100, Metabolic Activation: RAT, LIVER, S-9, AROCLOR 1254, Method: STANDARD PLATE

CCN(Cc1cccc(S(=O)(=O)[O-])c1)c1ccc(C(=C2C=CC(=[N+](C)C)C=C2)c2ccc(N(CC)Cc3cccc(S(=O)(=O)O)c3)cc2)cc1
mutagenic call (Test System: AMES SALMONELLA TYPHIMURIUM, Strain/Indicator: TA98, Metabolic Activation: HAMSTER, LIVER, S-9, AROCLOR 1254 (30%), Method: PREINCUBATION): active; positive
mutagenic call [1]: inactive; negative
mutagenic call (Test System: AMES SALMONELLA TYPHIMURIUM, Strain/Indicator: TA98, Metabolic Activation: RAT, LIVER, S-9, AROCLOR 1254 (30%), Method: PREINCUBATION): active; positive
mutagenic call (Test System: AMES SALMONELLA TYPHIMURIUM, Strain/Indicator: TA98, Metabolic Activation: RAT, LIVER, S-9, KC500 OR PHENOBARBITAL, Method: LIQUID SUSPENSION): active; positive
mutagenic call (Test System: AMES SALMONELLA TYPHIMURIUM, Strain/Indicator: TA100, Metabolic Activation: HAMSTER, LIVER, S-9, AROCLOR 1254 (30%), Method: PREINCUBATION): inactive; negative
mutagenic call [2]: inactive; negative
mutagenic call (Test System: AMES SALMONELLA TYPHIMURIUM, Strain/Indicator: TA100, Metabolic Activation: RAT, LIVER, S-9, AROCLOR 1254 (30%), Method: PREINCUBATION): inactive; negative
mutagenic call (Test System: Mouse lymphoma, Strain/Indicator: L5178Y (tk+/tk-), Metabolic Activation: None, Method: Suspension/plate): active; positive
mutagenic call (Test System: Mouse lymphoma, Strain/Indicator: L5178Y (tk+/tk-), Metabolic Activation: Rat,Liver, S-9, Aroclor 1254, Method: Suspension/plate): inactive; negative

CCCCCCCCCCCC(=O)OCCS(=O)(=O)O
mutagenic call (Test System: AMES SALMONELLA TYPHIMURIUM, Strain/Indicator: TA98, Metabolic Activation: HAMSTER, LIVER, S-9, AROCLOR 1254, Method: STANDARD PLATE): inactive; negative
mutagenic call [3]: inactive; negative
mutagenic call (Test System: AMES SALMONELLA TYPHIMURIUM, Strain/Indicator: TA98, Metabolic Activation: RAT, LIVER, S-9, AROCLOR 1254, Method: STANDARD PLATE): inactive; negative
mutagenic call (Test System: AMES SALMONELLA TYPHIMURIUM, Strain/Indicator: TA100, Metabolic Activation: HAMSTER, LIVER, S-9, AROCLOR 1254, Method: STANDARD PLATE): inactive; negative
mutagenic call [4]: inactive; negative
mutagenic call [5]: inactive; negative
mutagenic call (Test System: AMES SALMONELLA TYPHIMURIUM, Strain/Indicator: TA1535, Metabolic Activation: HAMSTER, LIVER, S-9, AROCLOR 1254, Method: STANDARD PLATE): inactive; negative
mutagenic call (Test System: AMES SALMONELLA TYPHIMURIUM, Strain/Indicator: TA1535, Metabolic Activation: NONE, Method: STANDARD PLATE): inactive; negative
mutagenic call (Test System: AMES SALMONELLA TYPHIMURIUM, Strain/Indicator: TA1535, Metabolic Activation: RAT, LIVER, S-9, AROCLOR 1254, Method: STANDARD PLATE): inactive; negative
mutagenic call (Test System: AMES SALMONELLA TYPHIMURIUM, Strain/Indicator: TA1537, Metabolic Activation: HAMSTER, LIVER, S-9, AROCLOR 1254, Method: STANDARD PLATE): inactive; negative
mutagenic call (Test System: AMES SALMONELLA TYPHIMURIUM, Strain/Indicator: TA1537, Metabolic Activation: NONE, Method: STANDARD PLATE): inactive; negative
mutagenic call (Test System: AMES SALMONELLA TYPHIMURIUM, Strain/Indicator: TA1537, Metabolic Activation: RAT, LIVER, S-9, AROCLOR 1254, Method: STANDARD PLATE): inactive; negative
mutagenic call (Test System: MOUSE LYMPHOMA, Strain/Indicator: L5178Y (TK+/TK-), Metabolic Activation: NONE, Method: SUSPENSION/PLATE): inactive; negative. reevaluation of results: negative
mutagenic call (Test System: MOUSE LYMPHOMA, Strain/Indicator: L5178Y (TK+/TK-), Metabolic Activation: RAT, LIVER, S-9, AROCLOR 1254, Method: SUSPENSION/PLATE): inactive; negative. reevaluation of results: negative

O=C(N=c1sn(C(=O)c2ccccc2[N+](=O)[O-])c2ccc([N+](=O)[O-])cc12)c1ccccc1[N+](=O)[O-]
mutagenic call (Test System: AMES SALMONELLA TYPHIMURIUM, Strain/Indicator: TA100, Metabolic Activation: S-9, Method: STANDARD PLATE): active; positive

Cc1ccc2ccccc2n1
mutagenic call [5]: active; positive
mutagenic call (Test System: AMES SALMONELLA TYPHIMURIUM, Strain/Indicator: TA100, Metabolic Activation: RAT, LIVER, S-9, PHENOBARBITAL AND 5,6-BENZOFLAVONE, Method: PREINCUBATION): active; positive
mutagenic call (Test System: AMES SALMONELLA TYPHIMURIUM, Strain/Indicator: TA100, Metabolic Activation: RAT, LIVER, S-9, PHENOBARBITAL AND 5,6-NAPHTHOFLAVONE, Method: PREINCUBATION): active; positive
mutagenic call (Test System: AMES SALMONELLA TYPHIMURIUM, Strain/Indicator: TA100, Metabolic Activation: RAT, LIVER, S-9, Method: PREINCUBATION): inactive; negative
mutagenic call (Test System: UDS RODENT HEPATOCYTES, Strain/Indicator: THY INCORP (NON-S-PHASE), Metabolic Activation: NONE, Method: AUTORADIOGRAPHY): inactive; negative

Nc1cc2cccc3ccc4cccc1c4c32
mutagenic call (Test System: AMES SALMONELLA TYPHIMURIUM, Strain/Indicator: TA98, Metabolic Activation: RAT, LIVER, S-9, AROCLOR 1254 (2 OR 4%), Method: STANDARD PLATE): active; positive
mutagenic call (Test System: AMES SALMONELLA TYPHIMURIUM, Strain/Indicator: TA100, Metabolic Activation: RAT, LIVER, S-9, AROCLOR 1254 (2%), Method: STANDARD PLATE): active; positive
mutagenic call (Test System: AMES SALMONELLA TYPHIMURIUM, Strain/Indicator: TA1535, Metabolic Activation: RAT, LIVER, S-9, AROCLOR 1254 (2%), Method: STANDARD PLATE): inactive; negative
mutagenic call (Test System: AMES SALMONELLA TYPHIMURIUM, Strain/Indicator: TA1537, Metabolic Activation: RAT, LIVER, S-9, AROCLOR 1254 (2%), Method: STANDARD PLATE): active; positive

O=C(O)c1ccc(O)cc1
mutagenic call [1]: inactive; negative
mutagenic call [3]: inactive; negative
mutagenic call (Test System: AMES SALMONELLA TYPHIMURIUM, Strain/Indicator: TA98, Metabolic Activation: RAT LIVER S-9, PHENOBARBITAL AND BETA-NAPHTHOFLAVONE, Method: PREINCUBATION): inactive; negative
mutagenic call [2]: inactive; negative
mutagenic call [4]: inactive; negative
mutagenic call (Test System: AMES SALMONELLA TYPHIMURIUM, Strain/Indicator: TA100, Metabolic Activation: RAT LIVER S-9, PHENOBARBITAL AND BETA-NAPHTHOFLAVONE, Method: PREINCUBATION): inactive; negative
mutagenic call (Test System: AMES SALMONELLA TYPHIMURIUM, Strain/Indicator: TA102, Metabolic Activation: NONE, Method: PREINCUBATION): inactive; negative
mutagenic call (Test System: AMES SALMONELLA TYPHIMURIUM, Strain/Indicator: TA102, Metabolic Activation: RAT LIVER S-9, PHENOBARBITAL AND BETA-NAPHTHOFLAVONE, Method: PREINCUBATION): inactive; negative
mutagenic call (Test System: AMES SALMONELLA TYPHIMURIUM, Strain/Indicator: TA104, Metabolic Activation: NONE, Method: PREINCUBATION): inactive; negative
mutagenic call (Test System: AMES SALMONELLA TYPHIMURIUM, Strain/Indicator: TA104, Metabolic Activation: RAT LIVER S-9, PHENOBARBITAL AND BETA-NAPHTHOFLAVONE, Method: PREINCUBATION): inactive; negative
mutagenic call (Test System: AMES SALMONELLA TYPHIMURIUM, Strain/Indicator: TA1535, Metabolic Activation: NONE, Method: PREINCUBATION): inactive; negative
mutagenic call (Test System: AMES SALMONELLA TYPHIMURIUM, Strain/Indicator: TA1535, Metabolic Activation: RAT LIVER S-9, PHENOBARBITAL AND BETA-NAPHTHOFLAVONE, Method: PREINCUBATION): inactive; negative
mutagenic call (Test System: AMES SALMONELLA TYPHIMURIUM, Strain/Indicator: TA1537, Metabolic Activation: NONE, Method: PREINCUBATION): inactive; negative
mutagenic call (Test System: AMES SALMONELLA TYPHIMURIUM, Strain/Indicator: TA1537, Metabolic Activation: RAT LIVER S-9, PHENOBARBITAL AND BETA-NAPHTHOFLAVONE, Method: PREINCUBATION): inactive; negative
mutagenic call (Test System: E. COLI, Strain/Indicator: CM561 LEXA, Metabolic Activation: NONE, Method: STANDARD PLATE): inactive; negative
mutagenic call (Test System: E. COLI, Strain/Indicator: CM611 UVRA/LEXA, Metabolic Activation: NONE, Method: STANDARD PLATE): inactive; negative
mutagenic call (Test System: E. COLI, Strain/Indicator: WP2 UVRA, Metabolic Activation: NONE, Method: STANDARD PLATE): inactive; negative
mutagenic call (Test System: E.COLI, Strain/Indicator: WP2UVRA/PKM101, Metabolic Activation: NONE, Method: PREINCUBATION): inactive; negative
mutagenic call (Test System: E.COLI, Strain/Indicator: WP2UVRA/PKM101, Metabolic Activation: RAT LIVER S-9, PHENOBARBITAL AND BETA-NAPHTHOFLAVONE, Method: PREINCUBATION): inactive; negative
mutagenic call (Test System: E.COLI, Strain/Indicator: WP2UVRA, Metabolic Activation: NONE, Method: PREINCUBATION): inactive; negative
mutagenic call (Test System: E.COLI, Strain/Indicator: WP2UVRA, Metabolic Activation: RAT LIVER S-9, PHENOBARBITAL AND BETA-NAPHTHOFLAVONE, Method: PREINCUBATION): inactive; negative
